Test results: US8835476B2, “Synthesis of novel antimicrobials” (priority 2005, dated 2014)
Converted amounts (≈) assume the structure as drawn. Like-named read-outs stand apart in the source and are kept apart here.

Experiments:
Type in all cases: cell-based
[1] = tested on: P. rettgeri CAP; experiment: Broth microdilution MIC, reference strains; details: Providencia rettgeri, read-out: MIC (growth inhibition, microdilution method)
Method in brief: (§1)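 Tested per NCCLS M7-A6 broth microdilution with an inoculum of 5×10^5 CFU/ml and DMSO controls matching solvent levels. Panels were incubated 16 to 20 hours at 35° C. in ambient air, and the MIC was taken as the lowest concentration inhibiting visible growth.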

[2] = tested on: E. cloacae clinical isolates; experiment: Broth microdilution MIC, clinical isolate strains (NAUTICA); details: unit assumed
Method in brief: as §1

[3] = tested on: S. maltophilia clinical isolates; experiment: as above; details: unit assumed
Method in brief: as §1

[4] = tested on: P. vulgaris clinical isolates; experiment: as above; details: unit assumed
Method in brief: as §1

[5] = tested on: E. coli clinical isolates; experiment: as above; details: unit assumed
Method in brief: as §1

[6] = tested on: C. koseril clinical isolates; experiment: as above; details: unit assumed
Method in brief: as §1

[7] = tested on: A. baumanii clinical isolates; experiment: as above; details: unit assumed
Method in brief: as §1

[8] = tested on: P. stuartii clinical isolates; experiment: as above; details: unit assumed
Method in brief: as §1

[9] = tested on: S. marcescens clinical isolates; experiment: as above; details: unit assumed
Method in brief: as §1

[10] = tested on: K. pneumoniae clinical isolates; experiment: as above; details: unit assumed
Method in brief: as §1

[11] = tested on: P. mirabilis clinical isolates; experiment: as above; details: unit assumed
Method in brief: as §1

[12] = tested on: P. retgerri clinical isolates; experiment: as above; details: unit assumed
Method in brief: as §1

[13] = tested on: C. freundii clinical isolates; experiment: as above; details: in µg/mL (unit assumed)
Method in brief: as §1

[14] = tested on: B. cepacia clinical isolates; experiment: as above; details: unit assumed
Method in brief: as §1

[15] = tested on: M. morganii clinical isolates; experiment: as above; details: unit assumed
Method in brief: as §1

[16] = tested on: E. aerogenes clinical isolates; experiment: as above; details: unit assumed
Method in brief: as §1

[17] = tested on: K. oxytoca clinical isolates; experiment: as above; details: unit assumed
Method in brief: as §1

[18] = tested on: C. amalonaticus clinical isolates; experiment: as above; details: unit assumed
Method in brief: as §1

[19] = tested on: S. liquifaciens clinical isolates; experiment: as above; details: unit assumed
Method in brief: as §1

[20] = tested on: P. mirabilis ATCC 29245; experiment: Broth microdilution MIC, ATCC strains; details: Proteus mirabilis
Method in brief: as §1

[21] = tested on: MRSA ATCC 33591; experiment: Broth microdilution MIC, ATCC strains; details: Staphylococcus aureus; MRSA ATCC 33591; read-out: MIC (growth inhibition, microdilution method)
Method in brief: as §1

[22] = tested on: S. saprophyticus ATCC 15305; experiment: Broth microdilution MIC, ATCC strains; details: Staphylococcus saprophyticus, ATCC15305; S. saprophyticus ATCC 15305; read-out: MIC (growth inhibition, microdilution method)
Method in brief: as §1

[23] = tested on: K. pneumoniae ATCC 13883; experiment: Broth microdilution MIC, ATCC strains; details: Klebsiella pneumoniae
Method in brief: as §1

[24] = tested on: S. warneri ATCC 27836; experiment: Broth microdilution MIC, ATCC strains; details: Staphylococcus warneri, ATCC27836; S. warneri ATCC 27836; read-out: MIC (growth inhibition, microdilution method)
Method in brief: as §1

[25] = tested on: S. marcescens ATCC 8100; experiment: Broth microdilution MIC, ATCC strains; details: Serratia marcescens
Method in brief: as §1

[26] = tested on: K. oxytoca ATCC 49131; experiment: Broth microdilution MIC, ATCC strains; details: Klebsiella oxytoca
Method in brief: as §1

[27] = tested on: E. faecalis ATCC 29212; experiment: Broth microdilution MIC, ATCC strains; details: for MIC: Enterococcus faecalis, read-out: MIC (growth inhibition, microdilution method)
Method in brief: as §1

[28] = tested on: E. cloacae ATCC 23355; experiment: Broth microdilution MIC, ATCC strains; details: Enterobacter cloacae
Method in brief: as §1

[29] = tested on: A. anitratus ATCC 19606; experiment: Broth microdilution MIC, ATCC strains; details: Acinetobacter calcoaceticus
Method in brief: as §1

[30] = tested on: E. coli ATCC 25922; experiment: Broth microdilution MIC, ATCC strains; details: Escherichia coli
Method in brief: as §1

[31] = clinical isolates, one table line per isolate
[32] = ATCC29212, E. faecalis ATCC 29212
[33] = ATCC29212, E. faecalis, ATCC number not given
[34] = Table 4B, each table row is one clinical isolate
[35] = ATCC29245, P. mirabilis ATCC 29245, read-out: MIC (growth inhibition, microdilution method)
[36] = ATCC13883, K. pneumoniae ATCC 13883, read-out: MIC (growth inhibition, microdilution method)
[37] = ATCC8100, S. marcescens ATCC 8100, read-out: MIC (growth inhibition, microdilution method)
[38] = ATCC49131, K. oxytoca ATCC 49131, read-out: MIC (growth inhibition, microdilution method)
[39] = ATCC23355, E. cloacae ATCC 23355, read-out: MIC (growth inhibition, microdilution method)
[40] = ATCC19606, A. anitratus ATCC 19606, read-out: MIC (growth inhibition, microdilution method)
[41] = ATCC25922, E. coli ATCC 25922, read-out: MIC (growth inhibition, microdilution method)

Cn1nnc(-c2cc(C(=O)O)sc2C(=O)O)n1 [DNM-112, 3-(2-Methyl-2H-tetrazol-5-yl)-thiophene-2,5-dicarboxylic acid]
MIC [1]: > 256 µg/mL | MIC, E. CLOACAE [2, 31]: > 256 µg/mL | MIC, S. MALTOPHILIA [3, 31]: > 256 µg/mL | MIC, P. VULGARIS [4, 31]: > 256 µg/mL | MIC, E. COLI [5, 31]: > 256 µg/mL | MIC, C. KOSERI [6, 31]: > 256 µg/mL | MIC, A. BAUMANII [7, 31]: > 256 µg/mL | MIC, P. STUARTII [8, 31]: > 256 µg/mL | MIC, S. MARCESCENS [9, 31]: > 256 µg/mL | MIC, K. PNEUMONIAE [10, 31]: > 256 µg/mL | MIC, P. MIRABILIS [11, 31]: > 256 µg/mL | MIC, P. RETTGERI [12, 31]: > 256 µg/mL | MIC, C. FREUNDII [13, 31]: >256 | MIC, B. CEPACIA [14, 31]: > 256 µg/mL | MIC, M. MORGANII [15, 31]: > 256 µg/mL | MIC, E. AEROGENES [16, 31]: > 256 µg/mL | MIC, K. OXYTOCA [17, 31]: > 256 µg/mL | MIC, C. AMALONATICUS [18, 31]: > 256 µg/mL | MIC, S. LIQUEFACIENS [19, 31]: > 256 µg/mL | MIC ([20]; ATCC29245, read-out: MIC (growth inhibition, microdilution method)): > 256 µg/mL | MIC [21]: 16 µg/mL (≈ 62.9 µM) | MIC [22]: 64 µg/mL (≈ 252 µM) | MIC ([23]; ATCC13883, read-out: MIC (growth inhibition, microdilution method)): > 256 µg/mL | MIC [24]: 64 µg/mL (≈ 252 µM) | MIC ([25]; ATCC8100, read-out: MIC (growth inhibition, microdilution method)): > 256 µg/mL | MIC ([26]; ATCC49131, read-out: MIC (growth inhibition, microdilution method)): > 256 µg/mL | MIC [27, 32]: 8 µg/mL (≈ 31.5 µM) | MIC [27, 33]: 8 µg/mL (≈ 31.5 µM) | MIC ([28]; ATCC23355, read-out: MIC (growth inhibition, microdilution method)): > 256 µg/mL | MIC ([29]; ATCC19606, read-out: MIC (growth inhibition, microdilution method)): > 256 µg/mL | MIC ([30]; ATCC25922, read-out: MIC (growth inhibition, microdilution method)): > 256 µg/mL

COC(=O)c1sc(-c2ccc(F)cc2)cc1-c1nnnn1C [DNM-145, 5-(4-Fluoro-phenyl)-3-(1-methyl-1H-tetrazol-5-yl)-thiophene-2-carboxylic acid methyl ester]
MIC ([1]; P. rettgeri (CAP in Table 1)): > 4 µg/mL | MIC, E. CLOACAE [2, 34]: > 4 µg/mL | MIC, S. MALTOPHILIA [3, 34]: > 4 µg/mL | MIC, P. VULGARIS [4, 34]: > 4 µg/mL | MIC, E. COLI [5, 34]: > 4 µg/mL | MIC, C. KOSERI [6, 34]: > 4 µg/mL | MIC, A. BAUMANII [7, 34]: > 4 µg/mL | MIC, P. STUARTII [8, 34]: > 4 µg/mL | MIC, S. MARCESCENS [9, 34]: > 4 µg/mL | MIC, K. PNEUMONIAE [10, 34]: > 4 µg/mL | MIC, P. MIRABILIS [11, 34]: > 4 µg/mL | MIC, P. RETTGERI [12, 34]: > 4 µg/mL | MIC, C. FREUNDII [13, 34]: >4 | MIC, B. CEPACIA [14, 34]: > 4 µg/mL | MIC, M. MORGANII [15, 34]: > 4 µg/mL | MIC, E. AEROGENES [16, 34]: > 4 µg/mL | MIC, K. OXYTOCA [17, 34]: > 4 µg/mL | MIC, C. AMALONATICUS [18, 34]: > 4 µg/mL | MIC, S. LIQUEFACIENS [19, 34]: > 4 µg/mL | MIC [20, 35]: > 4 µg/mL | MIC [21]: > 4 µg/mL | MIC [22]: > 4 µg/mL | MIC [23, 36]: > 4 µg/mL | MIC [24]: > 4 µg/mL | MIC [25, 37]: > 4 µg/mL | MIC [26, 38]: > 4 µg/mL | MIC [27, 32]: > 4 µg/mL | MIC [27, 33]: > 4 µg/mL | MIC [28, 39]: > 4 µg/mL | MIC [29, 40]: > 4 µg/mL | MIC [30, 41]: > 4 µg/mL

Fc1ccc(-c2cc(-c3nnn[nH]3)c(-c3ccc(F)cc3)s2)cc1 [DNM-131, 5-(2,5-Bis(4-fluorophenyl)thiophen-3-yl)-1H-tetrazole]
MIC ([1]; P. rettgeri (CAP in Table 1)): > 32 µg/mL | MIC, E. CLOACAE [2, 34]: > 32 µg/mL | MIC, S. MALTOPHILIA [3, 34]: > 32 µg/mL | MIC, P. VULGARIS [4, 34]: > 32 µg/mL | MIC, E. COLI [5, 34]: > 32 µg/mL | MIC, C. KOSERI [6, 34]: > 32 µg/mL | MIC, A. BAUMANII [7, 34]: > 32 µg/mL | MIC, P. STUARTII [8, 34]: > 32 µg/mL | MIC, S. MARCESCENS [9, 34]: > 32 µg/mL | MIC, K. PNEUMONIAE [10, 34]: > 32 µg/mL | MIC, P. MIRABILIS [11, 34]: > 32 µg/mL | MIC, P. RETTGERI [12, 34]: > 32 µg/mL | MIC, C. FREUNDII [13, 34]: >32 | MIC, B. CEPACIA [14, 34]: > 32 µg/mL | MIC, M. MORGANII [15, 34]: > 32 µg/mL | MIC, E. AEROGENES [16, 34]: > 32 µg/mL | MIC, K. OXYTOCA [17, 34]: > 32 µg/mL | MIC, C. AMALONATICUS [18, 34]: > 32 µg/mL | MIC, S. LIQUEFACIENS [19, 34]: > 32 µg/mL | MIC [20, 35]: > 32 µg/mL | MIC [21]: > 32 µg/mL | MIC [22]: > 32 µg/mL | MIC [23, 36]: > 32 µg/mL | MIC [24]: > 32 µg/mL | MIC [25, 37]: > 32 µg/mL | MIC [26, 38]: > 32 µg/mL | MIC (growth inhibition, microdilution method) ([27]; E. faecalis, ATCC number not given): >32 µg/mL | MIC [27, 32]: > 32 µg/mL | MIC [27, 33]: 32 µg/mL (≈ 94 µM) | MIC [28, 39]: > 32 µg/mL | MIC [29, 40]: > 32 µg/mL | MIC [30, 41]: > 32 µg/mL
